Our source for the T/C values is PubChem BioAssay AID248 (DTP/NCI, 2004).

Where “and” joins values, the source holds several entries; their conditions need not be identical. Equal values may be shown once. Inconclusive results and toxic doses are left out.

The assay deals with L1210 leukemia ip in BDF1 mice, survival T/C. The experiment in a line: NCI In Vivo Anticancer Drug Screen. Data for tumor model L1210 Leukemia (intraperitoneal) in B6D2F1 (BDF1) mice. The following applies: endpoint: mean survival time, higher = longer survival. In short, it runs like this: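 Ratio derived from survival: compound-dosed mice over vehicle-dosed mice, all bearing a transplantable tumor.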

Setting [1] is: dose: 100.0 mg/kg/injection, schedule: Q04DX003 (ip), vehicle: gum acacia.
[2] abbreviates: dose: 200.0 mg/kg/injection, schedule: Q04DX003 (ip), vehicle: gum acacia.
Where [3] appears, read: dose: 100.0 mg/kg/injection, schedule: Q04DX003 (ip), vehicle: Klucel (hydroxypropylcellulose) (HPC).
Where [4] appears, read: dose: 200.0 mg/kg/injection, schedule: Q04DX003 (ip), vehicle: Klucel (hydroxypropylcellulose) (HPC).
[5] abbreviates: dose: 400.0 mg/kg/injection, schedule: Q04DX003 (ip), vehicle: Klucel (hydroxypropylcellulose) (HPC).
[6] abbreviates: dose: 100.0 mg/kg/injection, schedule: Q04DX002 (ip), vehicle: Klucel (hydroxypropylcellulose) (HPC).
Setting [7] is: dose: 200.0 mg/kg/injection, schedule: Q04DX002 (ip), vehicle: Klucel (hydroxypropylcellulose) (HPC).
Setting [8] is: dose: 400.0 mg/kg/injection, schedule: Q04DX002 (ip), vehicle: Klucel (hydroxypropylcellulose) (HPC).
Where [9] appears, read: dose: 100.0 mg/kg/injection, schedule: Q04DX003 (ip), vehicle: saline with Tween-80.

`O=C1N(c2ccccc2)C(c2ccc([N+](=O)[O-])cc2)C1(c1ccccc1)c1ccccc1` (centres undefined): the T/C was 96 % of control under setting [1]; 89 % of control under setting [2]; 96 % of control (dose: 400.0 mg/kg/injection, schedule: Q04DX003 (ip), vehicle: gum acacia).
As for `CN(N=O)C(=O)NC(N)=O`, the T/C was 110 % of control (dose: 1.5 mg/kg/injection, schedule: Q01DX009 (ip), vehicle: saline); 115 % of control (dose: 1.87 mg/kg/injection, schedule: Q01DX Z (ip), vehicle: carboxymethylcellulose (CMC)); 188 % of control (dose: 10.0 mg/kg/injection, schedule: Q01DX Z (ip), vehicle: carboxymethylcellulose (CMC)); 177 % of control (dose: 15.0 mg/kg/injection, schedule: Q01DX Z (ip), vehicle: carboxymethylcellulose (CMC)); 110 % of control (dose: 30.0 mg/kg/injection, schedule: Q01DX Z (ip), vehicle: carboxymethylcellulose (CMC)); 91 % of control (dose: 40.0 mg/kg/injection, schedule: Q01DX Z (ip), vehicle: carboxymethylcellulose (CMC)). Besides, the T/C is 122 % of control (dose: 50.0 mg/kg/injection, schedule: Q01DX Z (ip), vehicle: saline); 112 % of control (dose: 75.0 mg/kg/injection, schedule: Q01DX Z (ip), vehicle: saline); 92 % of control (dose: 100.0 mg/kg/injection, schedule: Q01DX Z (ip), vehicle: saline).
`CCCCOP(=O)(OCCCC)C(=O)N(CC)CC`: the T/C was 112 % of control under setting [3], 101 % of control under setting [4] and 93 % of control under setting [5].
For the molecule `Cc1cccc(NC(=S)N(C)C)c1`, the T/C (dose: 100.0 mg/kg/injection, schedule: Q01DX009 (ip), vehicle: saline with Tween-80) was 99 % of control; the T/C (dose: 200.0 mg/kg/injection, schedule: Q01DX009 (ip), vehicle: saline with Tween-80) is 101 % of control; the T/C (dose: 400.0 mg/kg/injection, schedule: Q01DX009 (ip), vehicle: saline with Tween-80) is 94 % of control.
Regarding `O=C1NC(=O)C(c2ccccc2)(c2ccsc2)N1` (centres undefined), the T/C (dose: 100.0 mg/kg/injection, schedule: Q01DX001 (ip), vehicle: saline) was 95 % of control; the T/C (dose: 200.0 mg/kg/injection, schedule: Q01DX001 (ip), vehicle: saline) was 90 % of control; the T/C (dose: 400.0 mg/kg/injection, schedule: Q01DX001 (ip), vehicle: saline) is 95 % of control.
`CC1(C)C2CCCC1(CCOC(=O)COc1cc(Cl)c(Cl)cc1Cl)C2` (centres undefined): the T/C by setting is: under setting [6], 98 % of control; under setting [7], 91 % of control; under setting [8], 88 % of control.
`C/C=C/C=C\COC(=O)CC`: the T/C reads like this: (dose: 100.0 mg/kg/injection, schedule: Q04DX002 (ip), vehicle: saline) 103 % of control; (dose: 200.0 mg/kg/injection, schedule: Q04DX002 (ip), vehicle: saline) 100 % of control; (dose: 400.0 mg/kg/injection, schedule: Q04DX002 (ip), vehicle: saline) 103 % of control.
On to `O=C1C=C(O)C(=O)C=C1O`, for which the T/C runs as follows: (dose: 3.0 mg/kg/injection, schedule: Q01DX009 (ip), vehicle: saline) 111 % of control; (dose: 5.0 mg/kg/injection, schedule: Q01DX001 (ip), vehicle: saline) 103 % of control; (dose: 6.0 mg/kg/injection, schedule: Q01DX009 (ip), vehicle: saline) 98 % of control; (dose: 10.0 mg/kg/injection, schedule: Q01DX001 (ip), vehicle: saline) 101 % of control; (dose: 10.0 mg/kg/injection, schedule: Q01DX009 (ip), vehicle: saline with Tween-80) 100 % of control; (dose: 12.0 mg/kg/injection, schedule: Q01DX009 (ip), vehicle: saline) 103 % of control. Further, the T/C reads like this: (dose: 12.5 mg/kg/injection, schedule: Q04DX002 (ip), vehicle: saline) 105 % of control and 92 % of control; (dose: 12.5 mg/kg/injection, schedule: Q04DX003 (ip), vehicle: saline) 90 % of control; (dose: 20.0 mg/kg/injection, schedule: Q01DX001 (ip), vehicle: saline) 98 % of control; (dose: 25.0 mg/kg/injection, schedule: Q04DX002 (ip), vehicle: saline) 94 % of control; (dose: 40.0 mg/kg/injection, schedule: Q01DX009 (ip), vehicle: saline with Tween-80) 92 % of control; (dose: 50.0 mg/kg/injection, schedule: Q04DX002 (ip), vehicle: saline) 108 % of control.
With `N#CCc1c(Cl)sc(Cl)c1CC#N`, the T/C under setting [9] is 88 % of control and the T/C (dose: 200.0 mg/kg/injection, schedule: Q04DX003 (ip), vehicle: saline with Tween-80) was 88 % of control.
As for `N#CC1(C#N)C2C=CC(C3CCC=C32)C1(C#N)C#N` (centres undefined), the T/C reads like this: (dose: 12.5 mg/kg/injection, schedule: Q01DX009 (ip), vehicle: saline with Tween-80) 109 % of control; (dose: 25.0 mg/kg/injection, schedule: Q01DX009 (ip), vehicle: saline with Tween-80) 96 % of control; (dose: 25.0 mg/kg/injection, schedule: Q04DX003 (ip), vehicle: saline with Tween-80) 104 % of control; (dose: 50.0 mg/kg/injection, schedule: Q01DX009 (ip), vehicle: saline with Tween-80) 111 % of control; (dose: 50.0 mg/kg/injection, schedule: Q04DX003 (ip), vehicle: saline with Tween-80) 95 % of control; under setting [9], 93 % of control.
On to `Nc1ncnc2nc[nH]c12.[Tl]`, for which the T/C (dose: 3.12 mg/kg/injection, schedule: Q01DX009 (ip), vehicle: water) is 95 % of control; the T/C (dose: 3.12 mg/kg/injection, schedule: Q04DX003 (ip), vehicle: water) is 103 % of control; the T/C (dose: 6.25 mg/kg/injection, schedule: Q01DX009 (ip), vehicle: water) was 95 % of control; the T/C (dose: 6.25 mg/kg/injection, schedule: Q04DX003 (ip), vehicle: water) is 108 % of control; the T/C (dose: 12.5 mg/kg/injection, schedule: Q04DX003 (ip), vehicle: water) was 105 % of control.
With `N=C(N)SCc1cccc([N+](=O)[O-])c1`, the T/C is 102 % of control (dose: 25.0 mg/kg/injection, schedule: Q04DX002 (ip), vehicle: saline with Tween-80) and 102 % of control (dose: 50.0 mg/kg/injection, schedule: Q04DX002 (ip), vehicle: saline with Tween-80).
`O=C(O)CCCOc1cc(Cl)c(Cl)cc1Cl`: the T/C is 88 % of control (dose: 50.0 mg/kg/injection, schedule: Q01DX001 (ip), vehicle: carboxymethylcellulose (CMC)); 98 % of control (dose: 50.0 mg/kg/injection, schedule: Q01DX009 (ip), vehicle: gum acacia); 96 % of control (dose: 50.0 mg/kg/injection, schedule: Q04DX003 (ip), vehicle: gum acacia); 88 % of control (dose: 100.0 mg/kg/injection, schedule: Q01DX001 (ip), vehicle: carboxymethylcellulose (CMC)); 100 % of control (dose: 100.0 mg/kg/injection, schedule: Q01DX009 (ip), vehicle: gum acacia); 96 % of control under setting [1]. The T/C was 93 % of control (dose: 200.0 mg/kg/injection, schedule: Q01DX009 (ip), vehicle: gum acacia) and 104 % of control under setting [2].
With `COC(=O)C1=CC2C3C=C(C(=O)OC)C(C3)C2C1` (centres undefined), the T/C (dose: 75.0 mg/kg/injection, schedule: Q01DX001 (ip), vehicle: Klucel (hydroxypropylcellulose) (HPC)) is 100 % of control; the T/C (dose: 150.0 mg/kg/injection, schedule: Q01DX001 (ip), vehicle: Klucel (hydroxypropylcellulose) (HPC)) is 103 % of control; the T/C (dose: 300.0 mg/kg/injection, schedule: Q01DX001 (ip), vehicle: Klucel (hydroxypropylcellulose) (HPC)) is 98 % of control.
As for `O=C(Nc1ccccc1C(F)(F)F)c1ccc(Cl)cc1`, the T/C is 97 % of control (dose: 100.0 mg/kg/injection, schedule: Q01DX009 (ip), vehicle: Klucel (hydroxypropylcellulose) (HPC)); 93 % of control under setting [3]; 103 % of control (dose: 200.0 mg/kg/injection, schedule: Q01DX009 (ip), vehicle: Klucel (hydroxypropylcellulose) (HPC)); 99 % of control under setting [4]; 94 % of control (dose: 400.0 mg/kg/injection, schedule: Q01DX009 (ip), vehicle: Klucel (hydroxypropylcellulose) (HPC)); 88 % of control under setting [5].
Turning to `CCCCOc1ccc(OCCCC)cc1`, the T/C under setting [6] was 105 % of control, the T/C under setting [7] is 97 % of control and the T/C under setting [8] was 101 % of control.
